Results taken from patent publication US9095138B2, “Isoxazoline insecticides” (E.I. du Pont de Nemours and Company, priority 2007, dated 2015).

Columns and labels:
Type in all cases: in vivo
[1] = system: fall armyworm (Spodoptera frugiperda); test: Test B: control of fall armyworm on corn (maize) plant, foliar spray; conditions: sprayed at 50 ppm; 1-day-old larvae on corn; replicated three times
Summary of the method: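 Corn plants 4–5 days old were infested with 10–15 one-day-old fall armyworm larvae. They were then sprayed at 50 ppm in 10% acetone/water with 300 ppm non-ionic surfactant, three replicates. After 6 days at 25 °C and 70% RH, feeding damage was assessed visually and mortality rated.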

[2] = system: western flower thrips (Frankliniella occidentalis); test: Test E: control of western flower thrips on Soleil bean plant, contact and/or systemic; conditions: adult thrips, assessed after 6 days, replicated three times
Summary of the method: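 A 5-7 day old Soleil bean plant was sprayed with compound at 250 or 50 ppm in 10% acetone/water with 300 ppm X-77 surfactant, dried 1 hour, then infested with 22-27 adult thrips. After 6 days at 25° C., 45-55% relative humidity, mortality and plant damage were rated; three replicates.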

[3] = system: diamondback moth (Plutella xylostella); test: Test A: control of diamondback moth on radish plant, foliar spray; conditions: sprayed at 50 ppm; neonate larvae on radish; assessed after 6 days; replicated three times
Summary of the method: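 Radish plants 12–14 days old, pre-infested with about 50 neonate larvae, were sprayed with compound at 50 ppm in 10% acetone/water with 300 ppm X-77 surfactant, in three replicates. Units were held 6 days at 25 °C and 70% RH. Feeding damage was assessed visually and mortality was counted.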

C[C@@H](NC(=O)c1ccc(C2=NOC(c3cc(C(F)(F)F)cc(C(F)(F)F)c3)(C(F)(F)F)C2)c2ccccc12)C(=O)NCC1CC1 (stereo partly shown) [Compound 66]
control efficacy (feeding damage or mortality): very good to excellent levels [1]: 20% or less feeding damage or 80% or more mortality
control efficacy (feeding damage or mortality): very good to excellent levels ([2]; sprayed at 50 ppm): 20% or less feeding damage or 80% or more mortality
control efficacy (feeding damage or mortality): very good to excellent levels ([2]; sprayed at 250 ppm): 20% or less feeding damage or 80% or more mortality
control efficacy (feeding damage or mortality): very good to excellent levels [3]: 20% or less feeding damage or 80% or more mortality

O=C(CNC(=O)c1ccc(C2=NOC(c3cc(Cl)cc(OCC(F)(F)F)c3)(C(F)(F)F)C2)c2ccccc12)NC1CC1 (stereo not shown) [Compound 85]
control efficacy (feeding damage or mortality): very good to excellent levels [1]: 20% or less feeding damage or 80% or more mortality
control efficacy (feeding damage or mortality): very good to excellent levels ([2]; sprayed at 50 ppm): 20% or less feeding damage or 80% or more mortality
control efficacy (feeding damage or mortality): very good to excellent levels [3]: 20% or less feeding damage or 80% or more mortality

C[C@@H](NC(=O)c1ccc(C2=NOC(c3cc(Cl)cc(C(F)(F)F)c3)(C(F)(F)F)C2)c2ccccc12)C(N)=O (stereo partly shown) [Compound 74]
control efficacy (feeding damage or mortality): very good to excellent levels [1]: 20% or less feeding damage or 80% or more mortality
control efficacy (feeding damage or mortality): very good to excellent levels ([2]; sprayed at 50 ppm): 20% or less feeding damage or 80% or more mortality
control efficacy (feeding damage or mortality): very good to excellent levels ([2]; sprayed at 250 ppm): 20% or less feeding damage or 80% or more mortality
control efficacy (feeding damage or mortality): very good to excellent levels [3]: 20% or less feeding damage or 80% or more mortality

CC(C)[C@@H](NC(=O)c1ccc(C2=NOC(c3cc(Cl)cc(C(F)(F)F)c3)(C(F)(F)F)C2)c2ccccc12)C(N)=O (stereo partly shown) [Compound 87]
control efficacy (feeding damage or mortality): very good to excellent levels [1]: 20% or less feeding damage or 80% or more mortality
control efficacy (feeding damage or mortality): very good to excellent levels ([2]; sprayed at 50 ppm): 20% or less feeding damage or 80% or more mortality
control efficacy (feeding damage or mortality): very good to excellent levels [3]: 20% or less feeding damage or 80% or more mortality

CC(NC(=O)c1ccc(C2=NOC(c3cc(Cl)cc(C(F)(F)F)c3)(C(F)(F)F)C2)c2ccccc12)C(=O)NCC1CC1 (stereo not shown) [Compound 79]
control efficacy (feeding damage or mortality): very good to excellent levels [1]: 20% or less feeding damage or 80% or more mortality
control efficacy (feeding damage or mortality): very good to excellent levels ([2]; sprayed at 50 ppm): 20% or less feeding damage or 80% or more mortality
control efficacy (feeding damage or mortality): very good to excellent levels ([2]; sprayed at 250 ppm): 20% or less feeding damage or 80% or more mortality
control efficacy (feeding damage or mortality): very good to excellent levels [3]: 20% or less feeding damage or 80% or more mortality

CC[C@@H](NC(=O)c1ccc(C2=NOC(c3cc(Cl)cc(C(F)(F)F)c3)(C(F)(F)F)C2)c2ccccc12)C(N)=O (stereo partly shown) [Compound 86]
control efficacy (feeding damage or mortality): very good to excellent levels [1]: 20% or less feeding damage or 80% or more mortality
control efficacy (feeding damage or mortality): very good to excellent levels ([2]; sprayed at 50 ppm): 20% or less feeding damage or 80% or more mortality
control efficacy (feeding damage or mortality): very good to excellent levels [3]: 20% or less feeding damage or 80% or more mortality

CS(=O)(CCNC(=O)c1ccc(C2=NOC(c3cc(Cl)cc(Cl)c3)(C(F)(F)F)C2)c2ccccc12)=NC(=O)C(F)(F)F (stereo not shown) [Compound 93]
control efficacy (feeding damage or mortality): very good to excellent levels [1]: 20% or less feeding damage or 80% or more mortality
control efficacy (feeding damage or mortality): very good to excellent levels ([2]; sprayed at 50 ppm): 20% or less feeding damage or 80% or more mortality
control efficacy (feeding damage or mortality): very good to excellent levels ([2]; sprayed at 250 ppm): 20% or less feeding damage or 80% or more mortality
control efficacy (feeding damage or mortality): very good to excellent levels [3]: 20% or less feeding damage or 80% or more mortality

CC(NC(=O)c1ccc(C2=NOC(c3cc(C(F)(F)F)cc(C(F)(F)F)c3)(C(F)(F)F)C2)c2ccccc12)C(=O)NCC1CC1 (stereo not shown) [Compound 68]
control efficacy (feeding damage or mortality): very good to excellent levels [1]: 20% or less feeding damage or 80% or more mortality
control efficacy (feeding damage or mortality): very good to excellent levels ([2]; sprayed at 50 ppm): 20% or less feeding damage or 80% or more mortality
control efficacy (feeding damage or mortality): very good to excellent levels ([2]; sprayed at 250 ppm): 20% or less feeding damage or 80% or more mortality
control efficacy (feeding damage or mortality): very good to excellent levels [3]: 20% or less feeding damage or 80% or more mortality

C[C@@H](NC(=O)c1ccc(C2=NOC(c3cc(Br)cc(C(F)(F)F)c3)(C(F)(F)F)C2)c2ccccc12)C(N)=O (stereo partly shown) [Compound 83]
control efficacy (feeding damage or mortality): very good to excellent levels [1]: 20% or less feeding damage or 80% or more mortality
control efficacy (feeding damage or mortality): very good to excellent levels ([2]; sprayed at 50 ppm): 20% or less feeding damage or 80% or more mortality
control efficacy (feeding damage or mortality): very good to excellent levels [3]: 20% or less feeding damage or 80% or more mortality

O=C(CNC(=O)c1ccc(C2=NOC(c3cc(C(F)(F)F)cc(C(F)(F)F)c3)(C(F)(F)F)C2)c2ccccc12)NC1CC1 (stereo not shown) [Compound 55]
control efficacy (feeding damage or mortality): very good to excellent levels [1]: 20% or less feeding damage or 80% or more mortality
control efficacy (feeding damage or mortality): very good to excellent levels ([2]; sprayed at 50 ppm): 20% or less feeding damage or 80% or more mortality
control efficacy (feeding damage or mortality): very good to excellent levels ([2]; sprayed at 250 ppm): 20% or less feeding damage or 80% or more mortality
control efficacy (feeding damage or mortality): very good to excellent levels [3]: 20% or less feeding damage or 80% or more mortality

C[C@@H](NC(=O)c1ccc(C2=NOC(c3cc(C(F)(F)F)cc(C(F)(F)F)c3)(C(F)(F)F)C2)c2ccccc12)C(=O)NCC1CC1(F)F (stereo partly shown) [Compound 80]
control efficacy (feeding damage or mortality): very good to excellent levels [1]: 20% or less feeding damage or 80% or more mortality
control efficacy (feeding damage or mortality): very good to excellent levels ([2]; sprayed at 50 ppm): 20% or less feeding damage or 80% or more mortality
control efficacy (feeding damage or mortality): very good to excellent levels ([2]; sprayed at 250 ppm): 20% or less feeding damage or 80% or more mortality
control efficacy (feeding damage or mortality): very good to excellent levels [3]: 20% or less feeding damage or 80% or more mortality
